The source of these data is PubChem BioAssay AID280 (DTP/NCI, 2004).

The subject of this assay is nude mice, LOX melanoma ip, survival T/C. The assay can be described thus: NCI In Vivo Anticancer Drug Screen. Data for tumor model Human Amelanotic Melanoma (LOX) (intraperitoneal) in NU/NU BALB/C (nude) mice. The following applies: endpoint: median survival time, schedule: Q04DX003 (ip), higher = longer survival. On the procedure:
The antitumor activity of compounds was measured in mice bearing transplantable tumors. Survival or tumor size were measured and the results are expressed as the measurement made in the treated group (T) divided by the measurement made in the vehicle treated control group (C). The tumor model used in this assay is Human Amelanotic Melanoma (LOX) (intraperitoneal) in NU/NU BALB/C (nude) mice

[1] abbreviates: dose: 50.0 mg/kg/injection, vehicle: saline with Tween-80.
The mark [2] stands for this setting: dose: 100.0 mg/kg/injection, vehicle: saline with Tween-80.
Where [3] appears, read: dose: 75.0 mg/kg/injection, vehicle: Klucel (hydroxypropylcellulose) (HPC).
Setting [4] is: dose: 150.0 mg/kg/injection, vehicle: Klucel (hydroxypropylcellulose) (HPC).
[5] abbreviates: dose: 300.0 mg/kg/injection, vehicle: Klucel (hydroxypropylcellulose) (HPC).
Setting [6] is: dose: 600.0 mg/kg/injection, vehicle: Klucel (hydroxypropylcellulose) (HPC).
Where [7] appears, read: dose: 25.0 mg/kg/injection, vehicle: saline with Tween-80.
The mark [8] stands for this setting: dose: 200.0 mg/kg/injection, vehicle: saline with Tween-80.
Setting [9] is: dose: 37.5 mg/kg/injection, vehicle: saline with Tween-80.
Where [10] appears, read: dose: 75.0 mg/kg/injection, vehicle: saline with Tween-80.
[11] abbreviates: dose: 150.0 mg/kg/injection, vehicle: saline with Tween-80.
The mark [12] stands for this setting: dose: 5.0 mg/kg/injection, vehicle: water.
[13] abbreviates: dose: 10.0 mg/kg/injection, vehicle: water.
[14] abbreviates: dose: 12.5 mg/kg/injection, vehicle: saline with Tween-80.

“And” between values parts separate entries of the source, which are not always exact repeats. Identical values can stand only once. Inconclusive results and toxic doses are left out.

`N#Cc1c(-c2ccc(F)cc2)c(-c2ccc(F)cc2)nn(CCO)c1=O`: the T/C by setting is: (dose: 12.5 mg/kg/injection, vehicle: distilled water + Tween-80) 98 % of control; (dose: 25.0 mg/kg/injection, vehicle: distilled water + Tween-80) 111 % of control; (dose: 50.0 mg/kg/injection, vehicle: distilled water + Tween-80) 115 % of control; (dose: 72.0 mg/kg/injection, vehicle: distilled water + Tween-80) 110 % of control; (dose: 100.0 mg/kg/injection, vehicle: distilled water + Tween-80) 122 % of control; (dose: 120.0 mg/kg/injection, vehicle: distilled water + Tween-80) 124 % of control. Moreover, the T/C (dose: 200.0 mg/kg/injection, vehicle: distilled water + Tween-80) is 120 % of control; the T/C (dose: 333.33 mg/kg/injection, vehicle: distilled water + Tween-80) is 166 % of control; the T/C (dose: 555.55 mg/kg/injection, vehicle: distilled water + Tween-80) is 212 % of control.

For the molecule `CC(=O)/C(=C\c1ccc(Cl)c(Cl)c1)C(=O)CCN(C)C`, the T/C reads like this: (dose: 6.25 mg/kg/injection, vehicle: suspension in saline) 96 % of control; (dose: 12.5 mg/kg/injection, vehicle: suspension in saline) 102 % of control; (dose: 25.0 mg/kg/injection, vehicle: suspension in saline) 96 % of control; (dose: 50.0 mg/kg/injection, vehicle: suspension in saline) 86 % of control; (dose: 100.0 mg/kg/injection, vehicle: suspension in saline) 122 % of control.

As for `Clc1cccc(Cl)c1C(Nc1nncs1)Nc1nncs1`, the T/C under setting [1] is 106 % of control and the T/C under setting [2] was 106 % of control.

For the molecule `O=S(=O)(c1cccc(N=C=S)c1)c1cccc(N=C=S)c1`, the T/C is 91 % of control (dose: 15.0 mg/kg/injection, vehicle: Klucel (hydroxypropylcellulose) (HPC)); 95 % of control (dose: 30.0 mg/kg/injection, vehicle: Klucel (hydroxypropylcellulose) (HPC)); 107 % of control (dose: 60.0 mg/kg/injection, vehicle: Klucel (hydroxypropylcellulose) (HPC)); 109 % of control (dose: 120.0 mg/kg/injection, vehicle: Klucel (hydroxypropylcellulose) (HPC)).

For `O=C1CC2(C(=O)N1CN1CCOCC1)c1ccccc1-c1ccccc12`, the T/C reads like this: under setting [3], 102 % of control; under setting [4], 98 % of control; under setting [5], 103 % of control; under setting [6], 120 % of control.

Turning to `Nc1ccc2ccc(N)cc2c1`, the T/C was 102 % of control under setting [7]; 101 % of control under setting [1]; 102 % of control under setting [2]; 91 % of control under setting [8]; 101 % of control (dose: 400.0 mg/kg/injection, vehicle: saline with Tween-80).

As for `O=C1C2=C(C(=O)c3ncccc31)C1C=CC2CC1` (centres undefined), the T/C is 99 % of control (dose: 25.0 mg/kg/injection, vehicle: DMSO); 103 % of control (dose: 50.0 mg/kg/injection, vehicle: DMSO); 99 % of control (dose: 100.0 mg/kg/injection, vehicle: DMSO); 89 % of control (dose: 200.0 mg/kg/injection, vehicle: DMSO).

On to `CC(C)(C)c1ccc(C(=O)N2CCOC23CCCCC3)cc1`, for which the T/C is, setting by setting: under setting [3], 98 % of control; under setting [4], 95 % of control; under setting [5], 92 % of control; under setting [6], 107 % of control; (dose: 1200.0 mg/kg/injection, vehicle: Klucel (hydroxypropylcellulose) (HPC)) 107 % of control.

On to `COc1cc2c(c3c1c(=O)c1ccccc1n3C)C=CC(C)(C)O2`, for which the T/C is, setting by setting: (dose: 12.5 mg/kg/injection, vehicle: Klucel (hydroxypropylcellulose) (HPC)) 104 % of control; (dose: 25.0 mg/kg/injection, vehicle: Klucel (hydroxypropylcellulose) (HPC)) 107 % of control and 97 % of control; (dose: 50.0 mg/kg/injection, vehicle: Klucel (hydroxypropylcellulose) (HPC)) 107 % of control; (dose: 100.0 mg/kg/injection, vehicle: Klucel (hydroxypropylcellulose) (HPC)) 87 % of control.

`COc1ccc(S(=O)(=O)N=N/C=C2\C=CC=CN2O)cc1OC`: the T/C reads like this: (dose: 9.38 mg/kg/injection, vehicle: saline with Tween-80) 116 % of control; (dose: 18.75 mg/kg/injection, vehicle: saline with Tween-80) 101 % of control; under setting [9], 94 % of control; (dose: 54.0 mg/kg/injection, vehicle: saline with Tween-80) 124 % of control; under setting [10], 105 % of control; under setting [11], 173 % of control. The T/C runs as follows: (dose: 250.0 mg/kg/injection, vehicle: saline with Tween-80) 165 % of control; (dose: 416.67 mg/kg/injection, vehicle: saline with Tween-80) 156 % of control.

For the molecule `CCOC(=O)C1=C(C)O/C(=C/c2cccc(Cl)c2)C1=O`, the T/C by setting is: under setting [9], 200 % of control; under setting [10], 194 % of control; under setting [11], 152 % of control; (dose: 300.0 mg/kg/injection, vehicle: saline with Tween-80) 184 % of control.

In the case of `Cc1ccc(NN=O)nc1`, the T/C is, setting by setting: (dose: 2.5 mg/kg/injection, vehicle: water) 105 % of control; under setting [12], 114 % of control; under setting [13], 115 % of control.

Regarding `O=C(C/C(=N\C(=S)Nc1cc(C(F)(F)F)ccc1Cl)NO)N1CCCC1`, the T/C was 115 % of control under setting [1], 96 % of control under setting [2] and 108 % of control under setting [8].

As to `Cc1cc(N/N=C/c2ccccn2)nc2ccccc12`, the T/C is 107 % of control under setting [3] and 107 % of control under setting [4].

In the case of `COc1cccc2c1[C@H]1CO[C@H]3C4C[C@H](C(=O)O)C([C@@H](C2)N13)N4C` (some centres undefined), the T/C is 121 % of control (dose: 0.62 mg/kg/injection, vehicle: water); 121 % of control (dose: 1.25 mg/kg/injection, vehicle: water); 196 % of control under setting [12]; 152 % of control under setting [13]; 177 % of control (dose: 20.0 mg/kg/injection, vehicle: water).

On to `Cc1ccc(C(=Nc2ccccc2)N=P(c2ccccc2)(c2ccccc2)c2ccccc2)cc1`, for which the T/C was 106 % of control under setting [14], 115 % of control under setting [7], 119 % of control under setting [1] and 104 % of control under setting [2].

Consider `CCOC(=O)C(N)C[S][Sn]([CH3])([CH3])[Cl]` (centres undefined), for which the T/C is, setting by setting: under setting [14], 99 % of control; under setting [7], 101 % of control; under setting [1], 104 % of control.
